Columns and labels:
LCMV = conditions: mouse, in vivo
[1] = test system: CD8+ T cells producing IFN-γ and TNF-α; assay: Virus-specific CD8+ T-cell activity, ICCS assay; assay type: in vivo, mouse
[2] = Trafficking of OG-CPMV in vivo by tissue fluorescence measurements; parameters: species or system mouse; conditions: oral, exception GI tissues and lymph nodes in 1 of 3 mice
Protocol: Inoculation of mice with free Oregon Green 488 dye. Mice were administered 3.81 μg per mouse of free OG-488 dye by oral gavage, the equivalent amount of dye as that attached to the CPMV particles given by oral gavage. One mouse per day for three days post inoculation was perfused and tissues were isolated for fluorescence measurements. Similarly, by the intravenous route three mice were injected with 0.509 μg per mouse of free OG-488 dye, the equivalent amount of dye as that attached to the CPMV particles administered i.v. Tissues were harvested from mice following perfusion as described above.
Fluorescence measurements. Tissues were isolated and homogenized in PBS, then centrifuged at 10,000 g for 10 minutes at 4° C. to precipitate the cell debris. The OG-488-specific fluorescence emissions in the clarified tissue supernatants were determined using a Varian Cary Eclipse fluorescence spectrophotometer. A control sample of sham-inoculated tissue supernatant from each tissue was spiked with a known amount of OG-CPMV and the tissue-specific dye excitation and emission were determined for each tissue. The determined tissue specific emission λ value was then used in five separate scans of each tissue supernatant sample, following which the spectra were averaged and the emission value of the sham-inoculated control sample was subtracted as background.

HUVECS = assay: Endothelial cell migration assay; assay type: cell-based, human
Protocol: Endothelial cell migration assay. Migration of calcein AM labeled cells (5 μM, 30 min, at 37° C.) was tested in the presence or absence of the CPMV chimeras using cell migration chambers Briefly, the lower wells were loaded with buffers containing various chemo-attractants. The framed filter membrane was positioned on the top and 50,000 calcein labeled HUVECs treated with/without the targeting chimeras were added to the top well above the membrane. The assembly was incubated for 2 h at 37° C. and the number of cells that transmigrated to the bottom wells was quantified by measuring the intensity of fluorescence at 488 nm.

Substance: Lymphocytic choriomeningitis virus (LCMV), Armstrong strain
- survival of lethal i.c. LCMV challenge (LCMV): enabled the mice to survive the lethal i.c. inoculation
- survival of lethal i.c. LCMV challenge, boost experiment (LCMV): All mice inoculated with LCMV 6 weeks before survived
- CD8+ T cells producing IFN-γ ([1]; assay 8 days after boosting): 13.53%
- CD8+ T cells producing TNF-α ([1]; assay 8 days after boosting): 7.3%
- CD8+ T-cells producing IFN-γ ([1]; primary response assay): 10%
- CD8+ T-cells producing TNF-α ([1]; primary response assay): 6.5%

Substance: Oregon Green 488 (OG-488) carboxylic acid, succinimidyl ester [free OG-488 dye]
- fluorescence in tissues due to free dye [2]: negligible in all tissues at all time points

Substance: VEGF [reference compound]
- stimulation of migration of cells across the filter (HUVECS): 30%
